# Measured values published in patent US20190233884A1 (University of Southern California, priority 2016, published 2019).
# Values joined by “and” are separate entries in the source; they are usually repeats but may differ in a detail not shown here. Equal entries are not always repeated.
# Test system: patients with refractory metastatic colorectal cancer (mCRC)
# Assay: PFS, OS and disease control in the control cohort of refractory mCRC patients receiving regorafenib (n=52, Italy), by baseline characteristics and SNP genotype
# Type: in vivo, human
# Method: All patients underwent the treatment in salvage-line setting.
# (§1) Patients in the control group received 160 mg regorafenib (Bayer, Leverkusen, Germany) once daily from day 1 to 21 every 4 weeks. Doses were adjusted based on haematological and non-haematological adverse events at the treating physician's discretion in accordance with the manufacturer's recommendations. The analyses were approved by the University of Southern California (USC) Institutional Review Board of Medical Sciences and conducted at the USC/Norris Comprehensive Cancer Center in accordance with the Declaration of Helsinki and Good Clinical Practice Guidelines.
# (§2) Genomic DNA was extracted from peripheral whole blood in patients of all cohorts using the QIAmp Kit (Qiagen, Valencia, Calif., USA) according to the manufacturer's protocol (www.qiagen.com). The candidate SNPs were genotyped using PCR-based direct DNA sequence analysis by ABI 3100A Capillary Genetic Analyzer and Sequencing Scanner v1.0 (Applied Biosystems). Amplification of extracted DNA was carried out using both forward and reverse primers for each gene polymorphism as shown in Table 1. […] The investigators analyzing SNPs were blinded to the clinical data of the study patients.
# The primary endpoint in this study was progression-free survival (PFS), and the secondary endpoints were overall survival (OS) and disease control rate (DCR). PFS was calculated from the date of starting treatment to the first observation of disease progression or death from any cause. If a patient had no disease progression or death, PFS was censored at the date of last follow up. OS was calculated from the date of starting treatment until the date of death from any cause or the date of the last follow-up, at which point OS was censored. The disease control rate (DCR) was defined as the proportion of patients who achieved a stable disease (SD) or […] according to RECISTv1.1. Chi-square test was used to examine the difference in baseline patient characteristics among the three cohorts. Allelic distribution of all SNPs by ethnicity for deviation from Hardy-Weinberg equilibrium and the allelic frequencies of SNPs were tested using the Chi-square tests with one degree of freedom. The associations between candidate SNPs and disease control, and toxicities were examined using contingency tables and Fisher's exact test. The associations of SNPs with PFS and OS were analysed using Kaplan-Meier curves and the log-rank test. Because the true mode of inheritance of candidate SNPs was not established yet, a codominant or dominant genetic model if appropriate was considered.
# All patients underwent the treatment in salvage-line setting. […] In all patients, adverse events were graded according to the Common Terminology Criteria for Adverse Events, version 4.0.
# as §1, with “events at treating physician's” for “events at the treating physician's”
# as §2, with “tested” for “genotyped”, “Biosystems).” for “Biosystems). Amplification of extracted DNA was carried out using both forward and reverse primers for each gene polymorphism as shown in Table 1.”, “data.” for “data of the study patients.”
# The primary endpoint in this study was progression-free survival (PFS), and the secondary endpoints were overall survival (OS) and disease control rate (DCR). […]
# [1] = control cohort, OCT2 rs316019 C/A and A/A combined
# [2] = control cohort, OCT2 rs316019 C/A and A/A combined vs C/C
# [3] = control cohort, OCT2 rs316019 C/C
# [4] = control cohort, adjusted for ECOG performance status and number of metastases
# [5] = control cohort, hENT1 rs760370 A/A
# [6] = control cohort, hENT1 rs760370 A/G
# [7] = control cohort, hENT1 rs760370 A/G vs A/A
# [8] = control cohort, hENT1 rs760370 Any G
# [9] = control cohort, hENT1 rs760370 Any G vs A/A
# [10] = control cohort, hENT1 rs760370 G/G
# [11] = control cohort, hENT1 rs760370 G/G vs A/A
# [12] = control cohort, hENT rs9394992 C/C
# [13] = control cohort, hENT rs9394992 C/T
# [14] = control cohort, hENT rs9394992 C/T and T/T combined
# [15] = control cohort, hENT rs9394992 C/T and T/T combined vs C/C
# [16] = control cohort, hENT rs9394992 T/T
compound,measurement,setting,value
CNC(=O)c1cc(Oc2ccc(NC(=O)Nc3ccc(Cl)c(C(F)(F)F)c3)c(F)c2)ccn1 [regorafenib],Disease Control Rate SD,"control cohort, OCT2 rs316019 C/A",1 (14%)
same,"Overall Survival Median, months (95% CI)",[1],"5.3 (3.6, 9.6) months"
same,"Progression-free Survival Median, months (95% CI)",[1],"1.8 (1.5, 2.0) months"
same,Overall Survival HR (95% CI) multivariate,[2],"0.90 (0.39, 2.09)"
same,Overall Survival HR (95% CI) univariate,[2],"0.79 (0.35, 1.75)"
same,Progression-free Survival HR (95% CI) multivariate,[2],"1.50 (0.62, 3.61)"
same,Progression-free Survival HR (95% CI) univariate,[2],"1.00 (0.44, 2.25)"
same,Disease Control Rate PD,[3],25 (61%)
same,Disease Control Rate SD,[3],16 (39%)
same,"Overall Survival Median, months (95% CI)",[3],"3.3 (2.6, 7.9) months"
same,"Progression-free Survival Median, months (95% CI)",[3],"2.1 (1.7, 3.2) months"
same,Overall Survival HR (95% CI) multivariate,[4],"0.80 (0.40, 1.61)"
same,Progression-free Survival HR (95% CI) multivariate,[4],"0.88 (0.45, 1.70)"
same,Disease Control Rate PD,[5],15 (65%) and 13 (65%)
same,Disease Control Rate SD,[5],7 (35%)
same,"Overall Survival Median, months (95% CI)",[5],"5.9 (4.5, 8.0) months and 5.9 (4.5, 5.0) months"
same,"Progression-free Survival Median, months (95% CI)",[5],"2.1 (1.8, 3.1) months"
same,Disease Control Rate PD,[6],11 (61%)
same,Disease Control Rate SD,[6],7 (39%)
same,"Overall Survival Median, months (95% CI)",[6],"5.7 (2.0, 8.9) months"
same,"Progression-free Survival Median, months (95% CI)",[6],"1.9 (1.6, 3.9) months"
same,Overall Survival HR (95% CI) multivariate,[7],"0.95 (0.50, 1.90)"
same,Overall Survival HR (95% CI) univariate,[7],"1.25 (0.67, 2.35)"
same,Progression-free Survival HR (95% CI) multivariate,[7],"1.08 (0.57, 2.08)"
same,Progression-free Survival HR (95% CI) univariate,[7],"1.26 (0.67, 2.37)"
same,Disease Control Rate PD,[8],19 (66%)
same,Disease Control Rate SD,[8],10 (34%)
same,"Overall Survival Median, months (95% CI)",[8],"4.1 (2.2, 7.8 ) months"
same,"Progression-free Survival Median, months (95% CI)",[8],"1.8 (1.5, 2.2) months"
same,Overall Survival HR (95% CI) multivariate,[9],"1.01 (0.55, 1.88)"
same,Overall Survival HR (95% CI) univariate,[9],"1.22 (0.70, 2.13)"
same,Progression-free Survival HR (95% CI) multivariate,[9],"1.15 (0.61, 2.15)"
same,Progression-free Survival HR (95% CI) univariate,[9],"1.25 (0.71, 2.20)"
same,Disease Control Rate SD,[10],3 (27%)
same,"Overall Survival Median, months (95% CI)",[10],"2.4 (1.2, 9.1) months"
same,"PD, patients n (%)",[10],8 (73%)
same,"Progression-free Survival Median, months (95% CI)",[10],"1.4 (0.4, 4.3) months"
same,Overall Survival HR (95% CI) multivariate,[11],"1.11 (0.48, 2.56)"
same,Overall Survival HR (95% CI) univariate,[11],"1.17 (0.55, 2.46)"
same,Progression-free Survival HR (95% CI) multivariate,[11],"1.57 (0.57, 4.35)"
same,Progression-free Survival HR (95% CI) univariate,[11],"1.24 (0.59, 2.59)"
same,Disease Control Rate PD,[12],14 (70%)
same,Disease Control Rate SD,[12],6 (30%)
same,"Overall Survival Median, months (95% CI)",[12],"4.4 (2.6, 6.0) months"
same,"Progression-free Survival Median, months (95% CI)",[12],"2.0 (1.2, 2.7) months"
same,Disease Control Rate PD,[13],16 (70%)
same,Disease Control Rate SD,[13],7 (30%)
same,"Overall Survival Median, months (95% CI)",[14],"7.7 (3.7, 8.9) months"
same,"Progression-free Survival Median, months (95% CI)",[14],"1.9 (1.7, 3.9) months"
same,Overall Survival HR (95% CI) multivariate,[15],"0.64 (0.32, 1.30)"
same,Overall Survival HR (95% CI) univariate,[15],"0.57 (0.31, 1.05)"
same,Progression-free Survival HR (95% CI) multivariate,[15],"0.85 (0.46, 1.59)"
same,Progression-free Survival HR (95% CI) univariate,[15],"0.75 (0.42, 1.32)"
same,Disease Control Rate PD,[16],2 (33%)
same,Disease Control Rate SD,[16],4 (67%)
same,"Progression-free Survival Median, months (95% CI)","control cohort, per OCT2 rs316000 genotype (row), OCT2 rs316000 Any A genotype","1.8 (1.6, 2.8) months"
same,"Progression-free Survival Median, months (95% CI)","control cohort, per OCT2 rs316000 genotype (row), OCT2 rs316000 G/G genotype","2.1 (1.7, 3.1) months"
same,Median OS,whole control cohort,5.3 months
same,Median PFS,whole control cohort,1.9 months
